Experimental data from PMC12529880, “Structural mechanisms for cold‐adapted activity of phosphoenolpyruvate carboxykinase” (Protein Science : A Publication of the Protein Society, 2025).

Assays:
Type in all cases: binding
[1] = target: T1, rcPEPCK (Rattus norvegicus, UniProt P07379); test: differential scanning fluorimetry (SYPRO Orange); settings: reference is the Mn-only enzyme, 21.4 μM enzyme, 1 mM MnCl2, 25 mM HEPES pH 7.4
T1 construct: gene Pck1; full length, 622 residues, SUMO tag removed by SUMO protease; E. coli BL21(DE3)
T1 sequence (P07379 1-622): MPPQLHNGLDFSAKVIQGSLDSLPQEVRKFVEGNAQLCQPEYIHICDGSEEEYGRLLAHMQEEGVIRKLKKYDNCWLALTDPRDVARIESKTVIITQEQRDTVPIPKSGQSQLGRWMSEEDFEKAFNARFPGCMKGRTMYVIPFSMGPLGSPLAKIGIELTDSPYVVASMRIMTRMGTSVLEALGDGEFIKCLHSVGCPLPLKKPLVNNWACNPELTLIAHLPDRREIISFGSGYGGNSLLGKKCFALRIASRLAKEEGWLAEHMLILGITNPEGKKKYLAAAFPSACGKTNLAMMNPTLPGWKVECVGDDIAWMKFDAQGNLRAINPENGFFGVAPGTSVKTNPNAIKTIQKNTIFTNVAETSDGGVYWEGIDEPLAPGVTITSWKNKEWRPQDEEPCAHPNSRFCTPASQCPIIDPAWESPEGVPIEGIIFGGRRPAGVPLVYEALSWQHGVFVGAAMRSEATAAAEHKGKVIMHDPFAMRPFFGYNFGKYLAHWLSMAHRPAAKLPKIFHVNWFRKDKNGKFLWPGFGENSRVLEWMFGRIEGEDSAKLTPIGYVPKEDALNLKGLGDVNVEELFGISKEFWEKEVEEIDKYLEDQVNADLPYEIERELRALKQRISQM
Text: differential scanning fluorimetry (SYPRO Orange) on rcPEPCK

[2] = target: T2, PnPEPCK (Polaromonas naphthalenivorans, UniProt A1VIE9); test: differential scanning fluorimetry (SYPRO Orange); settings: reference is the Mn-only enzyme, 21.4 μM enzyme, 1 mM MnCl2, 25 mM HEPES pH 7.4
T2 construct: gene pckG; full length, 622 residues, N-terminal His6-SUMO tag cleaved off with no additional amino acids; codon-optimised gene in pESUMO-Star; E. coli BL21(DE3); EC 4.1.1.32
Text: differential scanning fluorimetry (SYPRO Orange) on PnPEPCK

[3] = target: T2, PnPEPCK; test: X-ray crystal structure
[4] = absolute TM of Mn-oxalate complex, 214 μM oxalate
[5] = absolute TM of Mn-GTP complex, 214 μM GTP

T2 sequence (A1VIE9 entry or part of it): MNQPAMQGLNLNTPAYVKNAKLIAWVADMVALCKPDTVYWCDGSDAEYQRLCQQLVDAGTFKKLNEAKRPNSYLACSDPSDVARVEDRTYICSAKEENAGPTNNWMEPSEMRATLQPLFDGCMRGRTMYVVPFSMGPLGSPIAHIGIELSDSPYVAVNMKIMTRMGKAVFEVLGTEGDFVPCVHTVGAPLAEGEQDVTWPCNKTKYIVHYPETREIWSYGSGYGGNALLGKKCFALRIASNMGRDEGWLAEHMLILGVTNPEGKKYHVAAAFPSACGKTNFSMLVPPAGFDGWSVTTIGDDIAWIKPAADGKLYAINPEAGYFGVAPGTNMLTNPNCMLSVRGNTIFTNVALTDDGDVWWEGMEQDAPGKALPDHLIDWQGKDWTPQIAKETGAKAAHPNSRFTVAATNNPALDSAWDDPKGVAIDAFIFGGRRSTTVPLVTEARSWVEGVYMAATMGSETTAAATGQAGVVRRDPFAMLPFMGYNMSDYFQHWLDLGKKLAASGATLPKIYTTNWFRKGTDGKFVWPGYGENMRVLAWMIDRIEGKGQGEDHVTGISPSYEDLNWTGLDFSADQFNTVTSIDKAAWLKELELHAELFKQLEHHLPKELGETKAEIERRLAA

In the case of O=C(O)C(=O)O [oxalate], the “rcPEPCK / T M (°C)” value [1, 4] is reported as 54.4 °C, the “PnPEPCK / T M (°C)” value [2, 4] is reported as 46.3 °C and the X-ray crystal structure ([3]; enol-pyruvate mimic, ternary complex with GTP, closed) is reported as “All three ternary complexes (βSP‐GTP, oxalate‐GTP, and PGA‐GDP)”.
With Nc1nc2c(ncn2[C@@H]2O[C@H](COP(=O)(O)OP(=O)(O)O)[C@@H](O)[C@H]2O)c(=O)[nH]1 [GDP] the X-ray crystal structure ([3]; ternary complex with PGA, closed) was “All three ternary complexes (βSP‐GTP, oxalate‐GTP, and PGA‐GDP)”.
In the case of O=C(O)COP(=O)(O)O [PGA], the X-ray crystal structure ([3]; PEP analogue, ternary complex with GDP, closed) is reported as “All three ternary complexes (βSP‐GTP, oxalate‐GTP, and PGA‐GDP)”.
In the case of Nc1nc2c(ncn2[C@@H]2O[C@H](COP(=O)(O)OP(=O)(O)OP(=O)(O)O)[C@@H](O)[C@H]2O)c(=O)[nH]1 [GTP], the “rcPEPCK / T M (°C)” value [1, 5] is reported as 61.4 °C, the “PnPEPCK / T M (°C)” value [2, 5] is reported as 59.5 °C and the X-ray crystal structure ([3]; ternary complexes with βSP or oxalate, closed) is reported as “All three ternary complexes (βSP‐GTP, oxalate‐GTP, and PGA‐GDP)”.
In the case of C=C(OP(=O)(O)O)C(=O)O [PEP], the X-ray crystal structure ([3]; binary Mn2+ complex, open, P2_12_12_1 and C222_1 crystals) is reported as “both with PEP bound at the active site”.
For O=C(O)C(=O)CS(=O)(=O)O [βSP], the X-ray crystal structure ([3]; OAA analogue, binary Mn2+ complex and ternary complex with GTP, closed) was “All three ternary complexes (βSP‐GTP, oxalate‐GTP, and PGA‐GDP) in addition to βSP alone”.
